In brackets after ≈: the same amount, converted by molar mass.
Key:
[1] = test system: Enterococcus sp., decreased vancomycin susceptibility; assay: Standard microdilution susceptibility test, clinical isolates; type: cell-based; conditions: 5 clinical isolates
[2] = test system: Streptococcus pneumoniae, penicillin resistant; assay: as above; type: cell-based; conditions: 10 clinical isolates; for MIC50 / MIC90: Streptococcus pneumoniae; for MIC50: read-out: MIC 50%; for MIC90: read-out: MIC 90%
[3] = test system: Streptococcus pneumoniae, penicillin susceptible; assay: as above; type: cell-based; conditions: 10 clinical isolates; for MIC50 / MIC90: Streptococcus pneumoniae; for MIC50: read-out: MIC 50%; for MIC90: read-out: MIC 90%
[4] = test system: Enterococcus sp., vancomycin susceptible; assay: as above; type: cell-based; conditions: 20 clinical isolates; for MIC50 / MIC90: Enterococcus; for MIC50: read-out: MIC 50%; for MIC90: read-out: MIC 90%
[5] = test system: Staphylococcus aureus, methicillin resistant; assay: as above; type: cell-based; conditions: 10 clinical isolates; for MIC50 / MIC90: Staphylococcus aureus; for MIC50: read-out: MIC 50%; for MIC90: read-out: MIC 90%
[6] = test system: Coagulase-negative Staphylococus sp., methicillin resistant; assay: as above; type: cell-based; conditions: 10 clinical isolates; for MIC50: read-out: MIC 50%; for MIC90: read-out: MIC 90%
[7] = test system: Coagulase-negative Staphylococus sp., methicillin susceptible; assay: as above; type: cell-based; conditions: 10 clinical isolates; for MIC50: read-out: MIC 50%; for MIC90: read-out: MIC 90%
[8] = test system: Streptococcus viridans sp.; assay: as above; type: cell-based; conditions: 20 clinical isolates; for MIC50 / MIC90: Streptococcus viridans; for MIC50: read-out: MIC 50%; for MIC90: read-out: MIC 90%
[9] = test system: Staphylococcus aureus, methicillin susceptible; assay: as above; type: cell-based; conditions: 10 clinical isolates; for MIC50 / MIC90: Staphylococcus aureus; for MIC50: read-out: MIC 50%; for MIC90: read-out: MIC 90%
[10] = test system: Staphylococcus aureus ATCC 25923; conditions: cited from earlier work
[11] = test system: Diphteroides 8264; conditions: cited from earlier work
[12] = test system: Streptococcus simulans 7866; conditions: cited from earlier work
[13] = test system: Staphylococcus epidermidis 7586; conditions: cited from earlier work
[14] = test system: Enterobacter cloacae B 520; conditions: cited from earlier work
[15] = test system: Serotype β Streptococcus 8252; conditions: cited from earlier work
[16] = test system: Micrococcus spp.; conditions: cited from earlier work
[17] = test system: Staphylococcus aureus 7503; conditions: cited from earlier work
[18] = test system: Staphylococcus hominis 7835; conditions: cited from earlier work
[19] = test system: Streptococcus mitis 5728; conditions: cited from earlier work
[20] = test system: Bacillus subtilis ATCC 6633; conditions: cited from earlier work
[21] = test system: Staphylococcus capitis; conditions: cited from earlier work
[22] = test system: Escherichia coli B 1218; conditions: cited from earlier work
[23] = test system: Staphylococcus saprophyticus 8454; conditions: cited from earlier work
[24] = test system: Propionibacterium acnes; conditions: cited from earlier work

CC1COc2c(N3CCN(C)CC3)c(F)cc3c(=O)c(C(=O)O)cn1c23 (stereo not drawn) [Ofloxacin]
MIC Range [1]: 2 to 8 µg/mL
Ratio of Sensitive/Total [1]: 2/5
MIC Range [2]: 1 to 2 µg/mL
Ratio of Sensitive/Total [2]: 10/10
MIC50 [2]: 1 µg/mL (≈ 2.77 µM)
MIC90 [2]: 2 µg/mL (≈ 5.53 µM)
MIC Range [3]: 1 to 4 µg/mL
Ratio of Sensitive/Total [3]: 9/10
MIC50 [3]: 2 µg/mL (≈ 5.53 µM)
MIC90 [3]: 2 µg/mL (≈ 5.53 µM)
Ratio of Sensitive/Total [4]: 3/20
MIC50 [4]: 4 µg/mL (≈ 11.1 µM)
MIC90 [4]: > 16 µg/mL
Ratio of Sensitive/Total [5]: 1/10
MIC50 [5]: 16 µg/mL (≈ 44.3 µM)
MIC90 [5]: > 16 µg/mL
Ratio of Sensitive/Total [6]: 0/10
MIC50 [6]: > 16 µg/mL
MIC90 [6]: > 16 µg/mL
MIC Range [7]: 0.25 to 1 µg/mL
Ratio of Sensitive/Total [7]: 10/10
MIC50 [7]: 1 µg/mL (≈ 2.77 µM)
MIC90 [7]: 1 µg/mL (≈ 2.77 µM)
MIC Range [8]: 1 to 8 µg/mL
Ratio of Sensitive/Total [8]: 14/20
MIC50 [8]: 2 µg/mL (≈ 5.53 µM)
MIC90 [8]: 4 µg/mL (≈ 11.1 µM)
MIC Range [9]: 0.5 to 1 µg/mL
Ratio of Sensitive/Total [9]: 10/10
MIC50 [9]: 0.5 µg/mL (≈ 1.38 µM)
MIC90 [9]: 1 µg/mL (≈ 2.77 µM)

NC[C@H]1O[C@H](O[C@H]2[C@H](O)[C@@H](O[C@H]3O[C@H](CO)[C@@H](O)[C@H](N)[C@H]3O)[C@H](N)C[C@@H]2N)[C@H](N)C[C@@H]1O [Tobramycin]
Ratio of Sensitive/Total [1]: 0/5
Ratio of Sensitive/Total [2]: 0/10
MIC50 [2]: 32 µg/mL (≈ 68.4 µM)
MIC90 [2]: > 32 µg/mL
MIC Range [3]: 16 to 32 µg/mL
Ratio of Sensitive/Total [3]: 0/10
MIC50 [3]: 16 µg/mL (≈ 34.2 µM)
MIC90 [3]: 32 µg/mL (≈ 68.4 µM)
Ratio of Sensitive/Total [4]: 0/20
MIC50 [4]: 16 µg/mL (≈ 34.2 µM)
MIC90 [4]: > 32 µg/mL
Ratio of Sensitive/Total [5]: 6/10
MIC50 [5]: 1 µg/mL (≈ 2.14 µM)
MIC90 [5]: > 32 µg/mL
Ratio of Sensitive/Total [6]: 5/10
MIC50 [6]: 0.06 µg/mL (≈ 0.128 µM)
MIC90 [6]: > 32 µg/mL
MIC Range [7]: 0.06 to 4 µg/mL
Ratio of Sensitive/Total [7]: 10/10
MIC50 [7]: 0.06 µg/mL (≈ 0.128 µM)
MIC90 [7]: 4 µg/mL (≈ 8.56 µM)
MIC Range [8]: 4 to 32 µg/mL
Ratio of Sensitive/Total [8]: 1/20
MIC50 [8]: 16 µg/mL (≈ 34.2 µM)
MIC90 [8]: 32 µg/mL (≈ 68.4 µM)
MIC Range [9]: 0.5 to 1 µg/mL
Ratio of Sensitive/Total [9]: 10/10
MIC50 [9]: 0.5 µg/mL (≈ 1.07 µM)
MIC90 [9]: 0.5 µg/mL (≈ 1.07 µM)

[H]/N=C(/N)N[C@H]1[C@H](O)[C@@H](O)[C@H](O[C@@H]2O[C@@H](C)[C@](O)(C=O)[C@H]2O[C@@H]2O[C@@H](CO)[C@H](O)[C@@H](O)[C@@H]2NC)[C@@H](N/C(N)=N\[H])[C@@H]1O [Streptomycin]
MIC [10]: 3.9 µg/mL (≈ 6.71 µM)
MIC [11]: >250 µg/mL
MIC [12]: 2.0 µg/mL (≈ 3.44 µM)
MIC [13]: 2.0 µg/mL (≈ 3.44 µM)
MIC [14]: 7.8 µg/mL (≈ 13.4 µM)
MIC [15]: 3.9 µg/mL (≈ 6.71 µM)
MIC [16]: 3.9 µg/mL (≈ 6.71 µM)
MIC [17]: 2.0 µg/mL (≈ 3.44 µM)
MIC [18]: 2.0 µg/mL (≈ 3.44 µM)
MIC [19]: 250 µg/mL (≈ 430 µM)
MIC [20]: 1.0 µg/mL (≈ 1.72 µM)
MIC [21]: 3.9 µg/mL (≈ 6.71 µM)
MIC [22]: 15.6 µg/mL (≈ 26.8 µM)
MIC [23]: 1.0 µg/mL (≈ 1.72 µM)
MIC [24]: <0.5 µg/mL

— patent US20140303105A1, “Primycin and components thereof for use in the treatment or prevention of infections caused by specific pathogens” (PANNONPHARMA GYÓGYSZERGYÁRTÓ ZRT., priority 2011, published 2014)
